Measurements as given in ChEMBL document CHEMBL5465560, “Selectivity Literature for EUbOPEN Chemogenomic Library” (2024).

Legend:
[1] = target: T1, Serine/threonine-protein kinase Nek9 (Homo sapiens) (UniProt Q8TD19); experiment: Selectivity interaction (KinomeScan (DiscoverX)) EUB0000695a NEK9; details: at 100 nM
T1 sequence (whole entry): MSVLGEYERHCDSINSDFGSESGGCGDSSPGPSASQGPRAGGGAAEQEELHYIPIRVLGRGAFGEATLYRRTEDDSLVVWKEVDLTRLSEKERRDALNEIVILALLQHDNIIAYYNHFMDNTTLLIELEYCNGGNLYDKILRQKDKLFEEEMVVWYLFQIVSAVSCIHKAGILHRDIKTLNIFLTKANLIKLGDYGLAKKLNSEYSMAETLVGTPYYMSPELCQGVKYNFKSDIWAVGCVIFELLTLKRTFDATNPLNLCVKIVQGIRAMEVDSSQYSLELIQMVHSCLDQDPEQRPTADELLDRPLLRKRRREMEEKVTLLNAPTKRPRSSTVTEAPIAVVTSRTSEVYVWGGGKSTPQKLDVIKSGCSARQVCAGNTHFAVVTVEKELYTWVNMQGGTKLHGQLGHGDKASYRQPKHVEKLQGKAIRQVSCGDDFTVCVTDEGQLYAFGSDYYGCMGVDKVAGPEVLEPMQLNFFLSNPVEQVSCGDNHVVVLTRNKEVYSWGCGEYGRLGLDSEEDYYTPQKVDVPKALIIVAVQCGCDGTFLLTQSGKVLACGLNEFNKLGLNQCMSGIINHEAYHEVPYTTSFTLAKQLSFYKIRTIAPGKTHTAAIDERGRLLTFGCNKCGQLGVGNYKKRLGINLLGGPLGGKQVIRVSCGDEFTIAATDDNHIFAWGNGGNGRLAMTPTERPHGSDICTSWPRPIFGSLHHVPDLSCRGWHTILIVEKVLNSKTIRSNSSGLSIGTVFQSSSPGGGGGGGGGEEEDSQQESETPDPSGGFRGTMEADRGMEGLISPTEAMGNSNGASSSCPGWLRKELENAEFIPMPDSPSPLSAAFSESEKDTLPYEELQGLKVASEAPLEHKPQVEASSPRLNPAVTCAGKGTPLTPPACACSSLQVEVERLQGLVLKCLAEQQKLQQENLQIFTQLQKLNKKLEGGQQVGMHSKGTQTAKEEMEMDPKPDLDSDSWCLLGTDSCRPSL

[2] = target: T2, Serine/threonine-protein kinase TAO1 (Homo sapiens) (UniProt Q7L7X3); experiment: Selectivity interaction (KinomeScan (DiscoverX)) EUB0000695a TAOK1; details: at 100 nM
T2 sequence (whole entry): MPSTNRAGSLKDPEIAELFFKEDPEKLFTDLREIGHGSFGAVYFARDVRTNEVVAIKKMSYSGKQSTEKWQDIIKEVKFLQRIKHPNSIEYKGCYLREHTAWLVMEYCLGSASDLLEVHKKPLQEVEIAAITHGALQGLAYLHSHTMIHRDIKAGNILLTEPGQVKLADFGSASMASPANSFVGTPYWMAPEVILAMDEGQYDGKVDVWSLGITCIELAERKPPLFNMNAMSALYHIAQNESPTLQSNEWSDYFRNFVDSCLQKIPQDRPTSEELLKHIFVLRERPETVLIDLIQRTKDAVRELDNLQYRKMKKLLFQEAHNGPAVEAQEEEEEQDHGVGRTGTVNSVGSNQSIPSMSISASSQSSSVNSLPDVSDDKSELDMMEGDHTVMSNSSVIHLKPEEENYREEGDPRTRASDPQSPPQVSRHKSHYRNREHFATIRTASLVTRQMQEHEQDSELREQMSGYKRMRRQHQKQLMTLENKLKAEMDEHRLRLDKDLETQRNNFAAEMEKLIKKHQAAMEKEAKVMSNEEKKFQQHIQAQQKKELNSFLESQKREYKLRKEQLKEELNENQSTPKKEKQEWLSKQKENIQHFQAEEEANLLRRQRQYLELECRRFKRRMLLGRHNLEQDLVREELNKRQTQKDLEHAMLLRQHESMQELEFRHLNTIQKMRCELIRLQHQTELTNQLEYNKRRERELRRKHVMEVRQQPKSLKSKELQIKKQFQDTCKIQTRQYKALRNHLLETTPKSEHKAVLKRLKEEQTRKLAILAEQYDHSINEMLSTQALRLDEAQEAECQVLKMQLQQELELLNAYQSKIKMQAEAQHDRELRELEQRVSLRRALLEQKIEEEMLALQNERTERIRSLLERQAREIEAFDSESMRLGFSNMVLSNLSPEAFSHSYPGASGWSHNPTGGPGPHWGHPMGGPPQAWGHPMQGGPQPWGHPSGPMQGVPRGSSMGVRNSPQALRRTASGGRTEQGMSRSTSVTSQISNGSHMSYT

[3] = target: T3, Protein arginine N-methyltransferase 9 (Homo sapiens) (UniProt Q6P2P2); experiment: Selectivity interaction (Methyltransferase screen (radiometric assays, panel of 8 PRMTs, 21 protein lysine methyltransferases, 3 DNA methyltransferases, and one RNA methyltransferase)) EUB0000272b PRMT9
T3 sequence (whole entry): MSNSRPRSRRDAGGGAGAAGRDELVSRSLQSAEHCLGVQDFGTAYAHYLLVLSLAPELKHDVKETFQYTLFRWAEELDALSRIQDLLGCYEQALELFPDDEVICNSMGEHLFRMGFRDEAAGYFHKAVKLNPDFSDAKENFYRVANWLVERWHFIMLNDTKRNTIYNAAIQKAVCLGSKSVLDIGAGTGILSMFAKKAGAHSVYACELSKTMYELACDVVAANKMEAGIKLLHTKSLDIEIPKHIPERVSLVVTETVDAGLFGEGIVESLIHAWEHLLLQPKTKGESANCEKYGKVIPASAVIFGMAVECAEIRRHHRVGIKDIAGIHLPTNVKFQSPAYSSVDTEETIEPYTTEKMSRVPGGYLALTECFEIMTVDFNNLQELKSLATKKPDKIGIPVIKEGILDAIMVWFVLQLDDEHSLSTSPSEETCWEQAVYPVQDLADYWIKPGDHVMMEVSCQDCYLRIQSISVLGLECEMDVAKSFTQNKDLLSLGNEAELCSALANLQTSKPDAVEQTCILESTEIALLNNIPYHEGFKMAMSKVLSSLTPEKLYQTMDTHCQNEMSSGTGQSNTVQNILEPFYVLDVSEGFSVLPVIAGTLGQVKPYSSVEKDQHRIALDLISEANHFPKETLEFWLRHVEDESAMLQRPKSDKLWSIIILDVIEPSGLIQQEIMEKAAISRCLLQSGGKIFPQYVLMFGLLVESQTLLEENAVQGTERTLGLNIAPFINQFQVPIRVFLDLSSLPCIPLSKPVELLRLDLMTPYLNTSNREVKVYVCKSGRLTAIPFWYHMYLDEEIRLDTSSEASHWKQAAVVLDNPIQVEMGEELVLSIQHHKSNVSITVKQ

[4] = target: Serine/threonine-protein kinase SIK2 (Homo sapiens) (UniProt Q9H0K1); details: at 10 µM
Focal adhesion kinase 1 = Focal adhesion kinase 1 (Homo sapiens, UniProt Q05397); experiment: Selectivity interaction (Kinase panel (Invitrogen)) EUB0000639a PTK2; details: at 200 nM
Chain of Focal adhesion kinase 1 (Q05397 2-1052 limits assumed): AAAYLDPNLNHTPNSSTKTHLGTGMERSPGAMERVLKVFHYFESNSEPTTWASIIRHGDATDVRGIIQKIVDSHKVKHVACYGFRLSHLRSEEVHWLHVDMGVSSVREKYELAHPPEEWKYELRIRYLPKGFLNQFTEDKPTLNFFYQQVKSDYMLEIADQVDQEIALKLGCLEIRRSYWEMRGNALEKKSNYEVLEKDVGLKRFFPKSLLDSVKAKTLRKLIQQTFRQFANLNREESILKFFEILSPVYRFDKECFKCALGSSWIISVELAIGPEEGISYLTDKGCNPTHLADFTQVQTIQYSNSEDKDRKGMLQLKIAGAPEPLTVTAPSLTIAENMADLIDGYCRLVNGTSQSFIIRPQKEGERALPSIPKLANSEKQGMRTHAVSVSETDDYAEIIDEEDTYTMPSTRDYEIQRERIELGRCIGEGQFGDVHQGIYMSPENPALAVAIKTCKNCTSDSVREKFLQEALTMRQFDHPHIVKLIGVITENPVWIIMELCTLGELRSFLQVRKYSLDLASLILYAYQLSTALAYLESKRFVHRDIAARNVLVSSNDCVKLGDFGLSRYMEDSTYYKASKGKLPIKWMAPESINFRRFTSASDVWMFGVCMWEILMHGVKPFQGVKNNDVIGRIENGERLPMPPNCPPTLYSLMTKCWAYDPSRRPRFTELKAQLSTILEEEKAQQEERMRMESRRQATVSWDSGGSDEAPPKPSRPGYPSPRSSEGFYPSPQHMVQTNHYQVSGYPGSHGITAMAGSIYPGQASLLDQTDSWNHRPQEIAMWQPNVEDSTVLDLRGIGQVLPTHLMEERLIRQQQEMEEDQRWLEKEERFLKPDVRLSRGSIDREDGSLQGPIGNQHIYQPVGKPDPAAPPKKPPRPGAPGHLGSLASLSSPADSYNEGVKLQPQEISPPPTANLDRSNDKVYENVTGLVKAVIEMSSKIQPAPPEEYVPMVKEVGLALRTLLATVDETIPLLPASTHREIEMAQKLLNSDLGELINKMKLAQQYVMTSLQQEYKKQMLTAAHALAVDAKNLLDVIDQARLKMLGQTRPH

Chain of Serine/threonine-protein kinase SIK2 (Homo sapiens) (Q9H0K1 whole entry, looked up): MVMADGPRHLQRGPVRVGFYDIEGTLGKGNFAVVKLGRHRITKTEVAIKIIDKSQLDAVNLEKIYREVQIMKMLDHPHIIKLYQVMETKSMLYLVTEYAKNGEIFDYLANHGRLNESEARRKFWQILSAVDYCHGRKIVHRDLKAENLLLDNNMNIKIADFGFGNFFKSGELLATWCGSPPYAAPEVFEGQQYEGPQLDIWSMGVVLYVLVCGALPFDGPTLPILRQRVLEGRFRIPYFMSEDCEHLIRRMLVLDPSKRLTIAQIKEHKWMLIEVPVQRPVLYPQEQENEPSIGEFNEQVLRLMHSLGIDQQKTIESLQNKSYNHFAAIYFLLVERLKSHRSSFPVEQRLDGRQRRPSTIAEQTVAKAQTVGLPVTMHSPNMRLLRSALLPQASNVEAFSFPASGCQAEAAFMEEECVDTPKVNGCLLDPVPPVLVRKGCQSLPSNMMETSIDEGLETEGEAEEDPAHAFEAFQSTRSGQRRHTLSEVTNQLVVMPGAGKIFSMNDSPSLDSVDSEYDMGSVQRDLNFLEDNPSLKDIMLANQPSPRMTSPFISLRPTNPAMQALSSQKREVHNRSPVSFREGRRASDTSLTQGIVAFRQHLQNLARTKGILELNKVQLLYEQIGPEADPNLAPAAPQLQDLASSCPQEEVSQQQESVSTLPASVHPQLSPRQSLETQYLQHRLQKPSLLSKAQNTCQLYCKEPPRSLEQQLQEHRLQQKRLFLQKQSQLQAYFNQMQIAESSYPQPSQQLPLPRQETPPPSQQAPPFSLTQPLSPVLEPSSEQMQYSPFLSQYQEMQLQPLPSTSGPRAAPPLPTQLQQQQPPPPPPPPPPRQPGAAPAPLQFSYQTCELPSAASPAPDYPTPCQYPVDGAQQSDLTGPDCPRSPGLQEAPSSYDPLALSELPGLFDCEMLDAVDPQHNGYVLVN

Cc1cc(F)c(C(=O)Nc2cccc(-c3nncn3C(C)C)n2)cc1-n1cnc(C2CC2)c1 showed a % of control [1] of 100% and a % of control [2] of 100%.
Cc1cc(C)cc([C@H]2c3cc(C)ccc3NC(=O)CN2C(=O)c2ccc(Br)s2)c1 gave a % of activity ([3]; at 1 µM) of 105% and a % of activity ([3]; at 10 µM) of 105%.
Molecule Cc1cc([C@@H](C)Nc2ccccc2C(=O)O)c2nc(N3CCOCC3)cc(=O)n2c1 [AZD-6482] has a % of control [4] of 100%.
CC[C@@H]1[C@H](F)C(=O)N[C@@H]1COc1nccc2cc(C(N)=O)c(OC)cc12 [ZIMLOVISERTIB] gave a % of inhibition (Focal adhesion kinase 1) of 3.3%.
